Laboratory results taken from patent publication US20050197350A1, “Novel quinoline, tetrahydroquinazoline, and pyrimidine derivatives and methods of treatment related to the use thereof” (TAISHO PHARMACEUTICAL CO., LTD., priority 2003, published 2005).
Like-named read-outs stand apart in the source and are kept apart here.

Test system: MCH receptors
Experiment: MCH receptor activity class (method not given)
[1] = MCH receptor, class by percent of control at 10^-7 M or IC50
[2] = MCH receptor activity class 1-3 (percent of control at 10^-7 M or IC50)
[3] = class by percent of control at 10^-7 M or IC50
[4] = class 1-3 by percent of control at 10^-7 M or IC50
[5] = class by percent of control at 10^−7 M or IC50
[6] = activity class per percent of control at 10^-7 M or IC50

SMILES: CN(C)c1nc(N[C@H]2CC[C@@H](NC(=S)Nc3ccc(NC(=O)OC(C)(C)C)cc3)CC2)nc2c1CCCC2 [compound 1996]
- class [1]: 3 (Class 3 The value of percent of control at 10^−7 M was more than 60% or the value of IC50 was more than 200 nM.)

SMILES: Cc1onc(-c2ccccc2)c1NC(=S)N[C@H]1CC[C@@H](Nc2nccc(N(C)C)n2)CC1 [compound 2354]
- class [2]: 3 (Class 3 The value of percent of control at 10^−7 M was more than 60% or the value of IC50 was more than 200 nM.)

SMILES: CN(C)c1ccnc(N[C@H]2CC[C@@H](NC(=O)Cc3c[nH]c4ccc(OCc5ccccc5)cc34)CC2)n1 [compound 887]
- class [3]: 3 (Class 3 The value of percent of control at 10^−7 M was more than 60% or the value of IC50 was more than 200 nM.)

SMILES: Cc1ccc(C(=O)N[C@H]2CC[C@@H](Nc3nc(C)cc(N(C)C)n3)CC2)cc1 [Example 2565, N-(cis-4-{[4-(dimethylamino)-6-methylpyrimidin-2-yl]amino}cyclohexyl)-4-methylbenzamide]
- class: 1

SMILES: CN(C)c1nc(N[C@H]2CC[C@@H](NC(=S)NC3CCCC3)CC2)nc2c1CCCC2 [compound 1932]
- class [1]: 3 (Class 3 The value of percent of control at 10^−7 M was more than 60% or the value of IC50 was more than 200 nM.)

SMILES: CN(C)c1ccnc(N[C@H]2CC[C@@H](NC(=O)c3ccccc3SC(F)F)CC2)n1 [compound 300]
- class [3]: 3 (Class 3 The value of percent of control at 10^−7 M was more than 60% or the value of IC50 was more than 200 nM.)

SMILES: CN(C)c1cc(N[C@H]2CC[C@@H](NC(=O)C(CC(=O)c3ccccc3)c3c[nH]c4ccccc34)CC2)nc2ccccc12 (relative stereo) [compound 716, N-(cis-4-{[4-(dimethylamino)quinolin-2-yl]amino}cyclohexyl)-2-(1H-indol-3-yl)-4-oxo-4-phenylbutanamide]
- class [3]: 2 (Class 2: The value of percent of control at 10^−7 M was from 40% to 60% or the value of IC′50 was from 50 nM to 200 nM.)

SMILES: CCSc1ncccc1C(=O)N[C@H]1CC[C@@H](Nc2nc3c(c(N(C)C)n2)CCCC3)CC1 [compound 472]
- class [4]: 3 (Class 3 The value of percent of control at 10^−7 M was more than 60% or the value of IC50 was more than 200 nM.)

SMILES: Cc1cnc(N[C@H]2CC[C@@H](NC(=O)c3ccc(C(C)(C)C)cc3)CC2)nc1N(C)C [compound 2905]
- class [5]: 1 (Class 1: The value of percent of control at 10^−7 M was less than 40% or the value of IC50 was less than 50 nM.)

SMILES: Cc1c(NC(=O)NC[C@H]2CC[C@@H](Nc3nc4c(c(N(C)C)n3)CCCC4)CC2)cccc1[N+](=O)[O-] [compound 2473]
- class [2]: 3 (Class 3 The value of percent of control at 10^−7 M was more than 60% or the value of IC50 was more than 200 nM.)

SMILES: COc1cc(CN[C@H]2CC[C@@H](Nc3cc(N(C)C)c4ccccc4n3)CC2)cc(OC)c1O [compound 1096]
- class [6]: 3 (Class 3 The value of percent of control at 10^−7 M was more than 60% or the value of IC50 was more than 200 nM.)

SMILES: Cc1ccccc1NC(=O)NC[C@H]1CC[C@@H](Nc2cc(N(C)C)c3ccccc3n2)CC1 [compound 2368]
- class [2]: 3 (Class 3 The value of percent of control at 10^−7 M was more than 60% or the value of IC50 was more than 200 nM.)

SMILES: CN(C)c1nc(N[C@H]2CC[C@@H](CNCc3ccc(Cl)cc3)CC2)nc2c1CCCC2 [compound 1391]
- class [3]: 3 (Class 3 The value of percent of control at 10^−7 M was more than 60% or the value of IC50 was more than 200 nM.)

SMILES: CN(C)c1cc(N[C@H]2CC[C@@H](CNC(=O)c3ccc(I)cc3)CC2)nc2ccccc12 [compound 168]
- class [1]: 3 (Class 3 The value of percent of control at 10^−7 M was more than 60% or the value of IC50 was more than 200 nM.)

SMILES: Cc1cnc(N[C@H]2CC[C@@H](C(=O)Nc3cccc(Cl)c3)CC2)nc1N(C)C [compound 2788, cis-N-(3-chlorophenyl)-4-{[4-(dimethylamino)-5-methylpyrimidin-2-yl]amino}cyclohexanecarboxamide]
- class [5]: 1 (Class 1: The value of percent of control at 10^−7 M was less than 40% or the value of IC50 was less than 50 nM.)

SMILES: CN(C)c1cc(N[C@H]2CC[C@@H](CNC(=O)Cc3csc4ccccc34)CC2)nc2ccccc12 [compound 811]
- class [3]: 3 (Class 3 The value of percent of control at 10^−7 M was more than 60% or the value of IC50 was more than 200 nM.)

SMILES: Cc1cccc(C(=O)N[C@H]2CC[C@@H](Nc3cc(N(C)C)c4ccccc4n3)CC2)c1 [compound 50, N-(cis-4-{[4-(dimethylamino)quinolin-2-yl]amino}cyclohexyl)-3-methylbenzamide]
- class [1]: 1 (Class 1: The value of percent of control at 10^−7 M was less than 40% or the value of IC50 was less than 50 nM.)

SMILES: COc1ccc(C(=O)N[C@H]2CC[C@@H](Nc3nc(C)cc(N(C)C)n3)CC2)cc1 [compound 2956]
- class [5]: 3 (Class 3 The value of percent of control at 10^−7 M was more than 60% or the value of IC50 was more than 200 nM.)

SMILES: CN(C)c1ccnc(N[C@H]2CC[C@@H](CNCc3ccc(N(C)CCC#N)cc3)CC2)n1 [compound 1323]
- class [3]: 2 (Class 2: The value of percent of control at 10^−7 M was from 40% to 60% or the value of IC′50 was from 50 nM to 200 nM.)

SMILES: CN(C)c1cc(N[C@H]2CC[C@@H](NC(=S)NCc3ccccc3Cl)CC2)nc2ccccc12 [compound 2279]
- class [3]: 3 (Class 3 The value of percent of control at 10^−7 M was more than 60% or the value of IC50 was more than 200 nM.)

SMILES: Cc1cccc(C(=O)NC[C@H]2CC[C@@H](Nc3nc4c(c(N(C)C)n3)CCCC4)CC2)c1C [compound 672]
- class [3]: 3 (Class 3 The value of percent of control at 10^−7 M was more than 60% or the value of IC50 was more than 200 nM.)

SMILES: CN(C)c1cc(N[C@H]2CC[C@@H](NC(=S)Nc3c(F)cc(Br)cc3Br)CC2)nc2ccccc12 [compound 2300, N-(2,4-dibromo-6-fluorophenyl)-N′-(cis-4-{[4-(dimethylamino)quinolin-2-yl]amino}cyclohexyl)thiourea]
- class [2]: 2 (Class 2: The value of percent of control at 10^−7 M was from 40% to 60% or the value of IC′50 was from 50 nM to 200 nM.)

SMILES: COC(CNC1CCC(Nc2nccc(N(C)C)n2)CC1)c1ccccc1 (stereo not shown) [compound 1517]
- class (activity class 1-3: percent of control at 10^-7 M or IC50): 3 (Class 3 The value of percent of control at 10^−7 M was more than 60% or the value of IC50 was more than 200 nM.)

SMILES: CN(C)c1ccnc(N[C@H]2CC[C@@H](NC(=O)/C=C/c3ccccc3)CC2)n1 [compound 244]
- class [3]: 3 (Class 3 The value of percent of control at 10^−7 M was more than 60% or the value of IC50 was more than 200 nM.)

SMILES: CN(C)c1cc(N[C@H]2CC[C@@H](NC(=O)c3cccc(Cl)c3)CC2)nc2ccccc12 [compound 24]
- class [1]: 1 (Class 1: The value of percent of control at 10^−7 M was less than 40% or the value of IC50 was less than 50 nM.)

SMILES: CN(C)c1nc(N[C@H]2CC[C@@H](NC(=O)/C=C/c3ccccc3[N+](=O)[O-])CC2)nc2c1CCCC2 [compound 1002]
- class [6]: 3 (Class 3 The value of percent of control at 10^−7 M was more than 60% or the value of IC50 was more than 200 nM.)

SMILES: CN(C)c1ccnc(N[C@H]2CC[C@@H](NC(=O)Cc3ccccc3)CC2)n1 [compound 263]
- class [3]: 3 (Class 3 The value of percent of control at 10^−7 M was more than 60% or the value of IC50 was more than 200 nM.)

SMILES: CN(C)c1nc(N[C@H]2CC[C@@H](NC(=O)c3cc(Br)c(Br)s3)CC2)nc2c1CCCC2 [compound 977, 4,5-dibromo-N-(cis-4-{[4-(dimethylamino)-5,6,7,8-tetrahydroquinazolin-2-yl]amino}cyclohexyl)thiophene-2-carboxamide]
- class [3]: 2 (Class 2: The value of percent of control at 10^−7 M was from 40% to 60% or the value of IC′50 was from 50 nM to 200 nM.)

SMILES: CCOC(=O)[C@H](CC(C)C)NC(=O)NC[C@H]1CC[C@@H](Nc2nc3c(c(N(C)C)n2)CCCC3)CC1 (relative stereo) [compound 2455]
- class [2]: 2 (Class 2: The value of percent of control at 10^−7 M was from 40% to 60% or the value of IC′50 was from 50 nM to 200 nM.)

SMILES: CN(C)c1cc(N[C@H]2CC[C@@H](CNCCCCCCCCc3ccccc3)CC2)nc2ccccc12 [compound 1467]
- class [3]: 3 (Class 3 The value of percent of control at 10^−7 M was more than 60% or the value of IC50 was more than 200 nM.)

SMILES: CN(C)c1nc(N[C@H]2CC[C@@H](NC(=O)COc3ccc(Cl)cc3)CC2)nc2c1CCCC2 [compound 532]
- class [4]: 2 (Class 2: The value of percent of control at 10^−7 M was from 40% to 60% or the value of IC′50 was from 50 nM to 200 nM.)

SMILES: Cc1c(Cl)cccc1NC(=O)N[C@H]1CC[C@@H](Nc2cc(N(C)C)c3ccccc3n2)CC1 [compound 2115]
- class [3]: 3 (Class 3 The value of percent of control at 10^−7 M was more than 60% or the value of IC50 was more than 200 nM.)

SMILES: Cc1cc(N(C)C)nc(N[C@H]2CC[C@@H](C(=O)NCc3cc(F)ccc3F)CC2)n1 [Example 2583, cis-N-(2,5-difluorobenzyl)-4-{[4-(dimethylamino)-6-methylpyrimidin-2-yl]amino}cyclohexanecarboxamide]
- class: 1

SMILES: Cc1cc(C(=O)NC[C@H]2CC[C@@H](Nc3cc(N(C)C)c4ccccc4n3)CC2)ccc1Br [compound 184]
- class [1]: 3 (Class 3 The value of percent of control at 10^−7 M was more than 60% or the value of IC50 was more than 200 nM.)

SMILES: Cc1ccccc1CNC[C@H]1CC[C@@H](Nc2nc3c(c(N(C)C)n2)CCCC3)CC1 [compound 1427]
- class [3]: 3 (Class 3 The value of percent of control at 10^−7 M was more than 60% or the value of IC50 was more than 200 nM.)

SMILES: C[C@H](C(=O)N[C@H]1CC[C@@H](Nc2cc(N(C)C)c3ccccc3n2)CC1)c1ccc(-c2ccccc2)c(F)c1 [compound 740]
- class [3]: 3 (Class 3 The value of percent of control at 10^−7 M was more than 60% or the value of IC50 was more than 200 nM.)

SMILES: CN(C)c1nc(N[C@H]2CC[C@@H](NC(=O)C3C[C@H]3c3ccccc3)CC2)nc2c1CCCC2 (stereo partly drawn) [compound 482, (2R)-N-(cis-4-{[4-(dimethylamino)-5,6,7,8-tetrahydroquinazolin-2-yl]amino}cyclohexyl)-2-phenylcyclopropanecarboxamide]
- class [4]: 2 (Class 2: The value of percent of control at 10^−7 M was from 40% to 60% or the value of IC′50 was from 50 nM to 200 nM.)
